Laboratory results as given in patent publication US12180159B2, “Activators of the unfolded protein response” (The Board of Trustees of the University of Illinois, priority 2018, dated 2024).

Tests used:
[1] = system: ERα positive breast cancer; experiment: Mouse xenograft model of ERα positive breast cancer (BHPI); assay type: in vivo; conditions: at reasonable doses
[2] = system: ERα Negative MCF-10A cells; experiment: Trypan Blue exclusion cell death assay, MCF-10A cells; assay type: cell-based; conditions: 75 nM, 24 hours
From the text: (§1) TRYPAN BLUE: For decades, viable cells have been measured by their ability to exclude the dye Trypan Blue. […] Dead cells, which have lost membrane integrity, take up the dye and are blue. Thus, the percentage of dead cells is the percentage of cells that are Trypan Blue positive out of the total cell population. Quantitative assessment of Trypan Blue uptake uses a cell counter from Fisher. Since the assay is instrument based, there is no observer bias in determining the percentage of Trypan Blue positive cells.
(§2) TRYPAN BLUE ASSAYS: Assays are performed on cells in 6 well plates: 300,000 cells are plated in each well of a 6 well plate in 3 ml of medium. After 24 hours, the DMSO vehicle or the indicated compound is added (in 1000th of the vol.) The cells incubated for an additional 24 hours, and then harvested in 0.25 ml of trypsin, followed after harvest by 0.75 ml of medium. The cells are spun down and resuspended in 100-200 μl of medium left that is over the cell pellet (resuspend cells by pipetting up and down a few times). Add 10 μl to 10 μl of trypan blue. Then 10 μl is inserted into the counting slide. After inserting the slide into the Fisher TC20 counting is automatic (these many cells are needed because an accurate ratio of Trypan Blue positive to Trypan Blue negative cells requires about 200 cells in the field the instrument counts).
In FIG. 28, neither the test compounds nor BHPI kill non-tumorigenic ERα Negative MCF-10A breast cells. ERα Negative MCF-10A cells were maintained for 24 hours in DMSO vehicle or 75 nM of BHPI or 75 nM of each of the indicated test compounds: 4, 6 and 105. Cell death was determined using the instrument-based Trypan Blue exclusion assay. (n=3±SEM).

TYS-Luc cells = experiment: Long-term cell culture experiment, TYS-Luc cells (MTS); assay type: cell-based, human; conditions: 2 weeks 1 μM, then 4 weeks without drug
Description: To simulate the effect of several weeks of treatment of a tumor in a mouse xenograft, long-term cell culture experiments were performed. TYS-Luc cells (T47DERαY537S-Luc cells; ERαY537S is the most lethal ERα mutation seen in metastatic breast cancer) were plated at 4,000 cells/well in 96 well plates. […] After 2 weeks (medium change every 2 days) cell number was determined using MTS and a standard curve of absorbance versus cell number for TYS-Luc cells. Notes: (i) Bars denote the BHPI and (−)-105 arms of the experiment. No drug is present during regrow. […] This allows any surviving cells to regrow. After 4 weeks the cells were assayed using MTS. […] (Note: Visual inspection of the wells confirmed that there were no cells in the well treated for 2 weeks with active (−)-105.) To test whether the cells that regrew after BHPI treatment were resistant to BHPI they were re-treated for another cycle (BHPI Retreat) and shown to retain sensitivity to BHPI killing. (n=8 biological replicates±SEM.

Caov-3 cells = experiment: Cell death of Caov-3 ovarian cancer cells (automated Trypan Blue exclusion); assay type: cell-based, human; conditions: 24 hours
Description: FIG. 33. 105, but not BHPI, kills therapy-resistant ovarian CaOV-3 ovarian cancer cells. (±)-105; Cell death assay: Automated Trypan Blue exclusion. (24 hours post (±)-105) FIG. 34. (−)105 nearly eradicates ER+ drug-resistant tumors. Orthotopic breast cancer model, TYS-Luc cells, 40 mg/kg (−)-105 i.p., daily. 7 d Post injection image is a much longer exposure at higher gain than before injection image.
Caov3: Drug resistant ERα positive ovarian cancer cells. […] These cells are completely resistant to tamoxifen and fulvestrant and partially resistant to cisplatin and paclitaxel.

[3] = system: (BHPI-sensitive) parental T47D cells; experiment: Growth of parental T47D cells (MTS); assay type: cell-based, human; conditions: 100 nM and 1 μM, 4 days
Description: (§3) ERα containing T47D human breast cancer cells able to survive in 1 μM BHPI were selected by clonal outgrowth. The effect of 100 nM and 1 μM BHPI and (−)-105 on growth of the (BHPI-sensitive) parental T47D cells and partially BHPI-resistant T47D clones 1, 3, 8, and 11 was evaluated. 4,000 cells/well were plated. Cell number was determined by MTS assay from a standard curve of absorbance versus cell number. […] Thus, in 4 days (−)-105 killed some, but not all, of the resistant cells.

[4] = system: partially BHPI-resistant T47D clones 1, 3, 8, and 11; experiment: Growth of partially BHPI-resistant T47D clones (MTS); assay type: cell-based, human; conditions: 100 nM and 1 μM, 4 days
Description: as §3

[5] = system: T47D, TYS-4 and TDG-1 cells; experiment: MTS proliferation assay, T47D, TYS and TDG cells; assay type: cell-based, human; conditions: 4 days
Description: FIG. 30 compares the ability of BHPI and test compounds to inhibit proliferation of T47D, TYS and TDG cells. T47D cells were in medium containing 10 FBS (which contains estrogen), TYS-4 and TDG-1 cells were in medium containing 10% cd-FBS (estrogen depleted). Cells are plated at 2,000 cells/well in 96 well plates. After 24 hours in medium containing FBS or charcoal-dextran treated FBS (depleted of endogenous estrogens), the indicated concentration of each compound (in DMSO at 1/1000th of the volume of medium) was added. After 2 days the medium was changed, and the compounds were added again. After 2 additional days (4 days total) MTS assays are used to evaluate cell proliferation. (n=6±S.E.M.).

TDG cells (T47DERαD538G) = experiment: Trypan Blue exclusion cell death assay, TDG cells; assay type: cell-based, human; conditions: 24 hours
From the text: as §1, §2
The Trypan Blue cell death assay was used to evaluate the ability of the active enantiomer of C-105 [(−)-105] to kill ERα positive TDG-Luc cells. For all studies, 300,000 TDG-Luc cells/well in 10% FBS were plated in a 6 well plate in triplicate. 24 hours after plating, the indicated concentrations the active enantiomer of (−)-105, or BHPI (top) ICI, or OHT (Lower left) or (+)-105 (lower right) were added. After 24 hours, the cells were harvested, and the % dead cells was determined by automated Trypan Blue exclusion using the Countess II automated hemocytometer. Percentage of viable cells was calculated by doing 100−(Cell Death %). (n=3±SEM).
TDG cells were incubated for 24 hours with 75 nM of BHPI or 75 nM of each of the indicated test compounds: 4, 6 and (±)-105 (enantiomers not separated). Cell death was determined using the instrument-based Trypan Blue exclusion assay. Structures are in the Synthesis section. […] (n=3±SEM).

T47D cells [6] = conditions: 24 hours, up to 1,000 nM
Description: One such change is loss of plasma membrane polarity. This is monitored using Annexin V. Dying cells also take up the dye propidium iodide. Propidium iodide (PI) fluoresces when it is intercalated into DNA. These assays monitor cells at specific stages of cell death.
FLOW CYTOMETRY (FITC) ASSAYS: Cells were seeded in 12-well plates, 75,000 cells/well, and allowed to adhere overnight. The next day, the indicated concentrations of raptinal (positive control), (−)-105, (±)-105, and (+)-105 were added and allowed to incubate at 37° C. for 24 hours (Final Volume: 1 ml, 0.1% DMSO). After incubation, cells were harvested and resuspended in 350 μl of cold Annexin binding buffer (10 mM HEPES, 140 mM NaCl, 2.5 mM CaCl2, pH 7.4) premixed with Annexin V-FITC and PI dyes. Samples were analyzed on a BD Biosciences LSRII flow cytometer, and data analysis was performed using FSC Express Version 5-6. Cell death was assessed relative to a DMSO treated control.
T47D, human breast cancer cells were plated at 75,000 cells/well. […] After 24 hours viable cells were determined by FACS using annexin V-FITC and propidium iodide dyes. […]
75,000 ERα positive T47D, human breast cancer cells, were plated/well. […] After 24 hours viable cells were determined by FACS using annexin V-FITC and propidium iodide dyes. […]

MCF-7 and TYS-Luc cells = experiment: Cell death with 2-APB or thapsigargin (Trypan Blue exclusion); assay type: cell-based, human; conditions: thapsigargin, TYS-Luc cells, 1 hour
Description: ERα positive MCF-7 and TYS-Luc were treated with DMSO vehicle (Veh), or BHPI or (−)-105 plus or minus 2-APB for the indicated times. Cells death was determined using the instrument-based Trypan Blue exclusion assay. […] This is consistent with (−)-105 inducing powerful lethal activation of the anticipatory UPR pathway. (n=3±SEM). […] TYS-Luc cells were maintained in DMSO vehicle (Veh) or BHPI, or (−)-105 with or without thapsigargin (THG) for the indicated times. Blocking the decline in ATP levels (FIG. 19) with THG inhibited (−)-105-induced cell death. […] (n=3±SEM).

[7] = system: ATP levels in TYS-Luc cells; experiment: Intracellular ATP levels; assay type: cell-based, human; conditions: 10,000 nM thapsigargin with 1,000 nM (−)-105, 1 hr
Description: TYS-Luc cells were maintained DMSO vehicle (Veh), 1,000 nM BHPI, 1,000 nM (−)-105 with and without 10,000 nM thapsigargin (THG) for the indicated times. ATP levels were determines using a kit and relative ATP levels were from a standard curve. […] (n=3±SEM).

TYS cells (T47DERαY537S) = experiment: Trypan Blue exclusion cell death assay, TYS cells; assay type: cell-based, human; conditions: 24 hours
From the text: as §1, §2
TYS cells were incubated for 24 hours with 35 nM of BHPI or 35 nM of each of the indicated test compounds: 2, 4, and 105. Cell death was determined using the instrument-based Trypan Blue exclusion assay. (n=3±SEM).
TYS cells were incubated for 24 hours with 50 nM of BHPI or 50 nM of each of the indicated test compounds: 4, 6 and 105. Cell death was determined using the instrument-based Trypan Blue exclusion assay. (n=3±SEM).

T47D cells [8] = experiment: Trypan Blue exclusion cell death assay, T47D cells; assay type: cell-based, human; conditions: 75 nM, 24 hours
From the text: as §1
TRYPAN BLUE ASSAYS: Assays are performed on cells in 6 well plates: 300,000 cells are plated in each well of a 6 well plate in 3 ml of medium. After 24 hours, the DMSO vehicle or the indicated compound is added (in 1000th of the vol.) The cells incubated for an additional 24 hours, and then harvested in 0.25 ml of trypsin, followed after harvest by 0.75 ml of medium. […]
T47D cells were incubated for 24 hours with 75 nM of BHPI or 75 nM of each of the indicated test compounds: 4 and 6. Cell death was determined using the instrument-based Trypan Blue exclusion assay. […]
T47D cells were treated for 24 hours with 100 nM BHPI, or with 100 nM of each of the test compounds: 6, 8, and 105. […] Cell death was determined using the instrument-based Trypan Blue exclusion assay. […]

Cc1cccc2c1NC(=O)C2(c1ccc(O)cc1)c1ccc(O)cc1 [BHPI, reference compound]
effect on tumor growth [1]: stopped tumor growth and induced rapid and substantial tumor regression
effect on tumor growth / tumors (OVCAR-3 cells; OVCAR-3 orthotopic xenograft): strongly reduced tumor growth
tolerability in mice (OVCAR-3 cells; in both studies): well tolerated
death of ERα Negative MCF-10A cells [2]: neither BHPI nor any of the test compounds induce significant death
regrowth of cells after treatment (TYS-Luc cells): robust regrowth
killing of Caov-3 ovarian cancer cells (Caov-3 cells): blocks growth of Caov-3 cells but does not kill them
growth / killing of parental T47D cells [3]: blocked growth and killed many of the T47D cells
growth of the BHPI-resistant clones [4]: inhibited growth but could not stop growth of the resistant clones
inhibition of proliferation [5]: effectively inhibit proliferation

CC/C(=C(\c1ccc(O)cc1)c1ccc(OCCN(C)C)cc1)c1ccccc1 [OHT, z-4-hydroxytamoxifen, reference compound]
killing of TDG-Luc cells (TDG cells (T47DERαD538G); dose response, TDG-Luc cells): do not kill
cytotoxic or cytostatic phenotype (T47D cells [6]): cytostatic

C/C=C(/C)C(=O)O[C@H]1C(C)=C2[C@H]([C@@H]1OC(=O)CCCCCCC)[C@@](C)(OC(C)=O)C[C@H](OC(=O)CCC)[C@@]1(O)[C@H]2OC(=O)[C@@]1(C)O [THG, thapsigargin, reference compound]
effect on (−)-105-induced cell death (MCF-7 and TYS-Luc cells): strong inhibition
effect on (−)-105-induced decline in ATP levels [7]: completely blocked

COc1ccc(C2(c3ccc(O)cc3)C(=O)Nc3c(C(F)(F)F)cccc32)cc1 (stereo not shown) [compound 4, 3-(4-hydroxyphenyl)-3-(4-methoxyphenyl)-7-(trifluoromethyl)indolin-2-one]
ability to kill TDG cells compared to BHPI (TDG cells (T47DERαD538G); 75 nM): greatly increased ability to kill
ability to kill TYS cells compared to BHPI (TYS cells (T47DERαY537S); 35 nM): greatly increased ability to kill
ability to kill TYS cells compared to BHPI (TYS cells (T47DERαY537S); 50 nM): increased ability to kill
death of ERα Negative MCF-10A cells [2]: neither BHPI nor any of the test compounds induce significant death
ability to kill T47D cells (wild type estrogen receptor) (T47D cells [8]): greatly increased ability to kill
effectiveness in killing ERα positive breast cancer cells compared to BHPI [5]: more effective than BHPI
